Calls of active or inactive are those of the source. The calls are words filed in the database; no cut-off is given here.

The values that follow come from ChEMBL document CHEMBL6121019, “Design, synthesis and biological evaluation of bisnoralcohol derivatives as novel IRF4 inhibitors for the treatment of multiple myeloma” (Eur J Med Chem, 2025).

Data set [1] is described as follows: Antiproliferative activity against human HAF cells assessed as inhibition of cell viability measured after 72 hrs by MTS assay. The format is toxicity, cell-based. On the technique in general: Tetrazolium assays rely on reduction of a dye to a coloured formazan, in cell work by metabolically active cells.
The nature of data set [2]: AUC (0 to infinity) in ICR mouse plasma at 10 mg/kg, po. Type of data set: ADME, organism-based.
Data set [3] is described as follows: Selectivity ratio IC50 for human RPMI-8226 cells to IC50 for human NCI-H929 cells. The format is toxicity.
The test system of data set [4] is MM.1R. In words: Induction of cell cycle arrest in human MM1.R cells assessed as inhibition of CDC2 protein expression at 0.1 to 1 uM. Type of data set: functional, cell-based. Conditions: dose 0.1-1 µM.
Data set [5] has as its system MM.1R. In words: Downregulation of E2F5 expression in human MM1.R cells measured after 24 hrs by qRT-PCR analysis. Type of data set: functional, cell-based. Conditions: dose 0.125-1 µM.
Data set [6] concerns NCI-H929. In words: Antiproliferative activity against human NCI-H929 cells assessed as inhibition of cell viability measured after 72 hrs by MTS assay. As to conditions: NCI-H929, 72 h. The format is functional, cell-based.
Data set [7] relates to MM.1R. In words: Downregulation of CCNC expression in human MM1.R cells measured after 24 hrs by qRT-PCR analysis. Type of data set: functional, cell-based. As to conditions: dose 0.125-1 µM.
The test system of data set [8] is MM.1R. As to the kind of experiment: Effect on IRF4 expression in human MM1.R cells with siRNA mediated IRF4 knockdown by Western blot analysis. Type of data set: functional, cell-based. (Immunoblotting shows a protein as a band on a membrane.)
In data set [9] the target is T1, Interferon regulatory factor 4 (Homo sapiens) (UniProt Q15306).
T1 sequence (whole entry): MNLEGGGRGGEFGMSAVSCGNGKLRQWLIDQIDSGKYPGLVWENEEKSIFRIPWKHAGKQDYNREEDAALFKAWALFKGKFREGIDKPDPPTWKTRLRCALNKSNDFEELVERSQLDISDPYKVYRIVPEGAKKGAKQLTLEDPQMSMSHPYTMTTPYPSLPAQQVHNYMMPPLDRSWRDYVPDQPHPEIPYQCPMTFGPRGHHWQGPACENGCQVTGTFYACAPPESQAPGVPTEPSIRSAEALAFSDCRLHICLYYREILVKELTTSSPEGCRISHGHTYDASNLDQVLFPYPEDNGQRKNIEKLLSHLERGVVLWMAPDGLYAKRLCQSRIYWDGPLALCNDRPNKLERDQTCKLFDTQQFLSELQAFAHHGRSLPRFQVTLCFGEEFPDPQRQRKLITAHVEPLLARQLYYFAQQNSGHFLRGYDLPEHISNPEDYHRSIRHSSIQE
In words: Induction of thermal stabilization of IRF4 in human NCI-H929 cells at 42 to 42.3 degree C by […] method. Type of data set: cell-based.

Data set [10] can be described thus: Potency index, ratio of IC50 for lenalidomide to test compound IC50 for antiproliferative activity against human RPMI-8226 cells assessed as inhibition of cell growth measured after 72 hrs by MTS assay. The format is functional.
For data set [11], the system named is MM.1R. As to the kind of experiment: Induction of cell cycle arrest in human MM1.R cells assessed as inhibition of CMYC protein expression at 0.1 to 1 uM. The format is functional, cell-based. As to conditions: dose 0.1-1 µM.
Data set [12] has as its system NCI-H929. In words: Antiproliferative activity against human NCI-H929 cells with siRNA mediated IRF4 knockdown measured upto 5 days by MTS assay. Conditions: time <= 5.0 day. Type of data set: functional, cell-based.
Data set [13] has as its target T2, Interferon regulatory factor 4 (Homo sapiens, UniProt Q15306).
T2 sequence (Q15306 whole entry): T1 sequence (whole entry)
As to the kind of experiment: Binding affinity to IRF4 (unknown origin) assessed as dissociation constant by SPR analysis. On the technique in general: SPR reads the build-up and loss of mass on a sensor chip optically.

Data set [14] has as its system NCI-H929. As to the kind of experiment: Downregulation of HK2 expression in human NCI-H929 cells measured after 24 hrs by qRT-PCR analysis. Type of data set: functional, cell-based. As to conditions: dose 0.125-1 µM.
The subject of data set [15] is MM.1R. In words: Antiproliferative activity against human MM1.R cells with siRNA mediated IRF4#2 knockdown at 0.125 to 1 uM measured upto 5 days by MTS assay. Conditions: dose 0.125-1 µM, time <= 5.0 day. Type of data set: functional, cell-based.
For data set [16], the system named is MM.1R. As to the kind of experiment: Induction of cell cycle arrest in human MM1.R cells assessed as inhibition of cyclin B1 protein expression at 0.1 to 1 uM. The format is functional, cell-based. Conditions: dose 0.1-1 µM.
Data set [17] is described as follows: Oral bioavailability in ICR mouse plasma at 10 mg/kg. Type of data set: ADME, organism-based.
The subject of data set [18] is NCI-H929. In words: Antitumor activity against human NCI-H929 cells xenografted in Balb/C nude mouse model assessed as inhibition of tumor volume measured after 34 days. The format is functional. As to conditions: dose 12.5-25 mg/kg, time 34.0 day.
The nature of data set [19]: Selectivity ratio IC50 for human RPMI-8226 cells to IC50 for human MM1.R cells. The format is toxicity.

The term IC50 denotes the concentration at which inhibition is half-maximal. One may read the AUC(0-inf) as the area under the concentration-time curve extrapolated to infinity. By Kd is commonly meant the equilibrium constant for the complex coming apart. As usually defined, the bioavailability is the share of a dose that reaches the circulation, judged against a reference dose that is usually intravenous. Low values mean little systemic uptake, high ones much systemic uptake. Turning to `COc1ccc(NC(=O)[C@@H](C)[C@H]2CC[C@H]3[C@@H]4C(=O)C=C5C(C)(C)C(=O)C(C#N)=C[C@]5(C)[C@H]4CC[C@]23C)cc1`, in [1], the IC50 at 72 h was over 100 µM. This molecule also registered an area under the curve AUC(0-inf) in [2] of 463 ng·h/mL. For the same molecule, the “Ratio IC50” value amounted to 14.9 in data set [3], 30 in data set [10] and 10.8 in data set [19]. Besides, the outcome (with MM.1R [4]; in the data set on MM.1R [5]; with MM.1R [7]; in the data set on MM.1R [8]; in data set [9]; in the data set on MM.1R [11]) was Active. The result with NCI-H929 [12], with NCI-H929 [14], in the data set on MM.1R [15] and in the data set on MM.1R [16] was Active. Further, in the data set on NCI-H929 [6], the IC50 was found to be 0.08 µM. Also, in data set [13], the Kd stood at 1.28 µM. For the same molecule, the bioavailability in data set [17] was 53.9%. In addition, the Activity result in the data set on NCI-H929 [18] is on record as “Active; More Effective Than Lenalidomide”.
